Consider one molecule from patent publication US10143686B2, “Oxidosqualene cyclase as a protein target for anticancer therapeutics” (The Curators of the University of Missouri, priority 2010, dated 2018).

Counter-ions that a name gives are not always drawn. Like-named read-outs stand apart in the source and are kept apart here.

Data set [1] has as its system T47-D breast cancer cells. As to the kind of experiment: SRB cell viability assay, T47-D. It is filed as cell-based. Conditions: for IC50: Homo sapiens, T47D, Breast (ER+ PR+). The protocol: (§1) The sulforhodamine B (SRB) assay was employed to evaluate the effect of OSC inhibitor Ro 48-8071 on viability of breast cancer and normal mammary gland cells with slight modification of the original procedure established at NCI. Accordingly, the cells were seeded in 96-well plates in 100 μl culture medium and incubated overnight at 37° C. with 5% CO2. […] The surviving or adherent cells were fixed in situ by withdrawing the growth medium and adding 100 μl of PBS and 100 μl of 50% cold trichloroacetic acid and then incubating at 4° C. for 1 h. The surviving cells were washed with ice-water, dried at room temperature (RT), and then stained with 50 μl 4% SRB for 8 min at RT. Unbound dye was removed by washing 5 times with cold 1% acetic acid, and the plates were dried at RT. Bound stain was solubilized with 150 μl 10 mM Tris buffer, and absorbance of samples were measured at 520 nm with a SpecTRA MAX 190 microplate reader (Sunnyvale, Calif.). In these experiments on BT-474, T47-D, and AG11132A cell lines, six wells were used for each concentration, and each experiment was performed at least twice.
(§2) The effect of OSC inhibition was evaluated in additional cancer cell lines as well. Cancer cell lines may be purchased from ATCC (Manassas, Va.). The SRB assay has been employed for determination of the inhibitory effects of RO 48-8071 on growth of different cancer cells. Cells were seeded into 96-well plates and incubated overnight at 37° C. with 5% CO2. The culture medium was removed after 24 hours, and cells were washed with DMEM/F12 medium and then treated with various concentrations of RO 48-8071 in 5% FBS culture medium for 24 and 48 hours. Surviving or adherent cells were fixed in situ by withdrawing the growth medium, adding 100 μl PBS and 100 μl 50% trichloroacetic acid and then incubating at 4° C. for one hour. Cells were washed with ice-cold water, dried at room temperature (RT), and then stained with 50 μl 4% SRB for eight minutes at RT. Unbound dye was removed by washing with cold 1% acetic acid for five times, and plates were dried at RT. Bound stain was solubilized with 150 μl 10 mM Tris buffer and absorbance of samples was read at 520 nm with a SpecTRA MAX 190 microplate reader (Molecular Devices, Sunnyvale, Calif.). Six wells were used for each concentration, and each experiment was performed two to three times.
Effect of RO 48-8071 on breast cancer cell line T47-D viability. […] The culture mediums employed 10% FBS DMEM/F12 for culture and 5% FBS DMEM/F12 for treatment.

The test system of data set [2] is BT-20 breast cancer cells. As to the kind of experiment: SRB cell viability assay, BT-20. The following applies: Homo sapiens, BT-20, Breast (triple negative). It is filed as cell-based. As to the method: as §2
Effect of RO 48-8071 on estrogen, progesterone, and HER-2/neu receptors negative breast cancer cell line MDA-231 and BT-20 viability. […]

The test system of the next data set is H69AR lung cancer cells. As to the kind of experiment: SRB cell viability assay, H69AR. The following applies: Homo sapiens. The format is cell-based. As to the method:
as §2
Effect of RO 48-8071 on lung cancer cell line H69AR viability. […] The culture mediums employed 20% FBS RPMI-1640 for culture and 10% FBS RPMI-1640 for treatment.

Data set [3] concerns SK-OV-3 ovarian cancer cells. Nature of the data set: SRB cell viability assay, SK-OV-3. It is filed as cell-based. The following applies: Homo sapiens, SK-OV-3, Ovary. The protocol:
as §2
Effect of RO 48-8071 on ovarian cancer cell line SK-OV-3 viability. […]

Data set [4] has as its system normal mammary AG11132A cells. As to the kind of experiment: SRB cell viability assay, normal mammary cells. It is filed as cell-based. The following applies: 24 hours, FIG. 3. The protocol:
as §1

In data set [5] the test system is PC-3 human prostate cancer xenograft. As to the kind of experiment: PC-3 prostate tumor xenograft in nude mice. The protocol:
Male athymic nu/nu nude mice, 6 weeks-old (21-25 g) were purchased from Harlan Laboratories, Inc. Human prostate cancer PC-3 cells, […] in 0.15 ml solution mixed with matrigel and DMEM/F12 medium (1/1, v/v) were injected into each flank of mouse subcutaneously, and both flanks of each mouse were injected. When tumor volume reached around 100 mm3, animals were randomly assigned to three groups and the treatment started with Ro 48-8071 (5 mg/kg/day or 20 mg/kg/day) via tail-vein injection for five days, followed by same treatment every other day for seven additional times as shown in the FIG. 14A. Animals in control group received the vehicle alone under identical conditions.

[6] abbreviates: 24 hours, read-out: IC50 (μM) (24 hours).
Where [7] appears, read: 48 hours, read-out: IC50 (μM) (48 hours).

On to `C=CCN(C)CCCCCCOc1ccc(C(=O)c2ccc(Br)cc2)c(F)c1` [Ro 48-8071, 4′-[6-(Allylmethylamino)hexyloxy]-4-bromo-2′-fluorobenzophenone fumarate], for which the “effect on cell viability (SRB)” value in data set [1] (24 hours, dose-dependent, FIG. 2B) is “significantly inhibit the viability”. In addition, the IC50 in data set [1] (setting [6]) amounted to 11.5 ± 0.358 µM; in data set [1] (setting [7]) it was 7.76 ± 0.293 µM; in data set [2] (setting [6]), 15.8 ± 0.335 µM; in data set [2] (setting [7]) it was 12.7 ± 0.18 µM; in the data set with H69AR lung cancer cells (setting [6]) it was 10.8 ± 0.609 µM; in the data set with H69AR lung cancer cells (setting [7]) it was 8.11 ± 0.355 µM. The IC50 in data set [3] (setting [6]) was 18.3 ± 0.639 µM; in data set [3] (setting [7]), 12.7 ± 0.521 µM. In addition, the “inhibition of normal mammary cell viability compared with BT-474” value in data set [4] is given as “significantly less inhibition”. The “tumor volume versus control group” value in data set [5] (5 or 20 mg/kg/day, tail-vein injection, P<0.05 ANOVA, FIG. 14A) is given as “Significant differences compared with control group”. In data set [5] (PC-3 tumor-bearing nude mice), the “toxicity at doses used for inhibiting tumor growth” value was “non-toxic”. Further, the “animal weight, control versus treated groups” value in data set [5] (PC-3 tumor-bearing nude mice, FIG. 14B) is listed as “No significant difference”.
